Here are results for seven molecules from patent US20170008928A1, “NOVEL PEPTIDES AND PEPTIDE DERIVATIVES AND USES THEREOF” (Novo Nordisk A/S, priority 2015, published 2017).

In assay [1] the target is T1, human cholecystokinin-2 receptor (CCK-2R) (Homo sapiens, UniProt P32239).
T1 construct: host or cells: 1321-N1 cells (plasma membranes prepared by Evotec AG Hamburg)
T1 sequence (P32239 1-447): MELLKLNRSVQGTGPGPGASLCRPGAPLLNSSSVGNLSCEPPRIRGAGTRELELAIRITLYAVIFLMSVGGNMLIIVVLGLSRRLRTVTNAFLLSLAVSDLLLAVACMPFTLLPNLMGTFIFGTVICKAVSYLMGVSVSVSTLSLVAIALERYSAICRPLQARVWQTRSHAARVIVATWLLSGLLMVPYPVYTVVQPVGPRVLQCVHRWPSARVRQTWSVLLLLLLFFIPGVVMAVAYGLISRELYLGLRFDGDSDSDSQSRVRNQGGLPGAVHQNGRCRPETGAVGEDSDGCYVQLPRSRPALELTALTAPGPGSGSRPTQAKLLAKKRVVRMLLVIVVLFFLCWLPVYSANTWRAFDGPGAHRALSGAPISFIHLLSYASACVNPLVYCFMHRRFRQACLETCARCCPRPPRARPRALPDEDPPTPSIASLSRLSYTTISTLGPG
The experiment in a line: In vitro potency on CCK-2R, whole cell functional assay (IP1 accumulation, IP-One HTRF). The assay is classed as cell-based. (In general: Time-resolved FRET reads energy transfer from a long-lived donor to a nearby acceptor.)

Assay [2] concerns the target T1, human cholecystokinin-2 receptor (CCK-2R). Description: In vitro receptor binding to CCK-2R, SPA displacement of [125I]-CCK-8s from plasma membranes. On the procedure:
The in vitro binding affinity is a measure of the strength of attraction between a receptor and its ligand.
Displacement of radio ligand was measured as reduction in light emission from SPA beads.
The cells used in these assays were 1321-N1 cells stably expressing the CCK-1R or the CCK-2R (Perkin Elmer product numbers ES-530-A and ES-531-A, respectively see www.perkinelmer.com/Catalog/Product/ID/ES-530-A or -ES-531-A, respectively).
The cells were cultured in an incubator (95% RH (relative humidity), 5% (of standard atmospheric pressure) CO2, 37° C.) in cell culture medium (DMEM (Lonza catalogue BE-12-604F/U1), with 10% (v/v) Foetal Calf Serum (FCS, Gibco catalogue 16140-071), 1% (w/w) Sodium pyruvate (Gibco catalogue 11360-039), 500 μg/ml Geneticin® (G418) (Gibco catalogue 10131-027), 25 μg/ml Zeocin™ (Invitrogen catalogue R250-05), 1% (w/w) Pen/Strep (Gibco catalogue 15140-122)).
Plasma membranes were prepared by Evotec AG Hamburg by use of the ParrBomb (#4635, Parr Instrument Company). Cells were lysed with a lysis buffer (50 mM Tris, 2.5 mM EDTA, pH7) with added protease inhibitors (Complete Proteaseinhibitors EDTA-free (#05056489001, Roche), 1 tablet per 50 mL lysis buffer). The membrane fraction was separated by centrifugation. First, the cell lysate was centrifuged at 1000×g for 10 minutes at 4° C. The pellet was discarded and the supernatant was then centrifuged at 100.000×g for 30 minutes at 4° C. The supernatant was discarded and the pellet was re-suspended in 1 ml/5×10^8 cells ice cold membrane buffer (50 mM Tris, 320 mM Sucrose and Complete Proteaseinhibitors EDTA-free (#05056489001, Roche); pH7.4) and homogenised with dounce homogeniser. The protein concentration was determined using the Pierce™ BCA Protein Assay Kit according to kit manual, and the membrane preparation was adjust to the desired protein concentration with membrane buffer and aliquoted into pre-cooled tubes, snap-frozen in liquid nitrogen, and stored at −80° C.
CCK receptor binding assays were performed in 96-well Optiplates (Cat #6005290, PerkinElmer, Waltham, Mass., USA) in a total volume of 200 μl per well. CCK derivatives in 80% DMSO stock solutions of 800 μM were serially diluted […] in assay buffer (50 mM Tris/HCl, 4.5 mM MgCl2, […], 0.02% Tween 20, 0.25% ovalbumin, 0.1% pluronic F-68, pH 7.4) to final assay concentrations ranging from 10^−5 M (ten μM) to 10^−12 M (one pM).
Fifty μl of reference or test compounds were added to the Optiplates (using technical duplicates, i.e. two wells of each sample, one data point being the average of two wells), followed by addition of 150 μl of the mixture of SPA bead, radio ligand, and plasma membrane. The plates were sealed and incubated in the dark at +22° C. for 2 hours on a IKA MTS plate shaker (IKA-Werke D-79219 Staufen) set at 300 rpm and thereafter centrifuged at 1500 rpm for 10 minutes in a Heraeus Multifuge 3s centrifuge. SPA bead light emission was measured in a TopCount NXT (PerkinElmer) for 2 min/well after a delay of 60 min.
As a measure of compound affinity, calculations were performed in order to determine the half maximal inhibitory concentration (the IC50 value).
The data from the TopCounter were given as counts per minute (CPM). The CPM was plotted as a function of the concentration of compound. Dose-response curves were obtained, and IC50 values were calculated, by a nonlinear three-parameter logistic equation (log(agonist) vs response) with hillslope=−1, and shared top and bottom using the software programme GraphPad Prism v 6.0 (Graph Pad software, La Jolla, Calif., USA). The highest dose tested was 10^−5 M (1×10^7 pM).
The preference of a specific compound for the CCK-1 receptor, or the CCK-1R selectivity, may be defined as IC50 (CCK-2R)/IC50 (CCK-1R).
A minimum of three biological replicates was measured for each test compound on separate assay plates.

Setting [3] is: 1321-N1 cells stably expressing CCK-2R, IP1 accumulation, highest dose tested 1×10^6 pM, read-out: EC50 (CCK-2R).
Setting [4] is: displacement of [125I]-CCK-8s, plasma membranes of 1321-N1 cells expressing CCK-2R, highest dose tested 1×10^7 pM, read-out: IC50 (CCK-2R).

Where two headings read alike, the source gives them in different places. Starred links: 1 amine or outer side, 2 acyl side, 3 side chain; linkers in the order of their positions; H or OH if unused. Non-standard residues stand in square brackets, D forms with d. Residues, ends and D or L forms follow the SMILES beside them. *: point of attachment. Phe(4-CH2SO3H) = N[C@@H](Cc1ccc(CS(=O)(=O)O)cc1)C(=O)O; C20 diacid = O=C(O)CCCCCCCCCCCCCCCCCCC(=O)*; sY = N[C@@H](Cc1ccc(OS(=O)(=O)O)cc1)C(=O)O; C18 diacid = O=C(O)CCCCCCCCCCCCCCCCC(=O)*; γGlu = O=C(O)[C@H](CCC(=O)[*:2])N[*:1]; βAsp = O=C(O)[C@H](CC(=O)[*:2])N[*:1]; NMeF = CN[C@@H](Cc1ccccc1)C(=O)O; dNMeD = CN[C@H](CC(=O)O)C(=O)O; Nle = CCCC[C@H](N)C(=O)O; AEEA = NCCOCCOCC(=O)O

As for `CC(C)C[C@H](NC(=O)[C@H](Cc1ccc(OS(=O)(=O)O)cc1)NC(=O)[C@H](CC(=O)O)NC(=O)COCCOCCNC(=O)COCCOCCNC(=O)CC[C@H](NC(=O)CCCCCCCCCCCCCCCCC(=O)O)C(=O)O)C(=O)NCC(=O)N[C@@H](Cc1c[nH]c2ccccc12)C(=O)N[C@@H](CC(C)C)C(=O)N(C)[C@H](CC(=O)O)C(=O)N(C)[C@@H](Cc1ccccc1)C(N)=O` [Example 13, 2-[2-[2-[[2-[2-[2-[[(4S)-4-Carboxy-4-(17-carboxyheptadecanoylamino)butanoyl]amino]ethoxy]ethoxy]acetyl]amino]ethoxy]ethoxy]acetyl-Asp-sTyr-Leu-Gly-Trp-Leu-DMeAsp-MePhe-amide], the EC50 (usually the concentration that produces a half-maximal response) in assay [1] came out at 79 nM. Moreover, the half-inhibitory concentration (IC50) (usually the concentration at which inhibition is half-maximal) in assay [2] is 420 nM.

Take `CC(C)C[C@H](NC(=O)[C@H](Cc1ccc(OS(=O)(=O)O)cc1)NC(=O)[C@H](CC(=O)O)NC(=O)COCCOCCNC(=O)COCCOCCNC(=O)CC[C@H](NC(=O)CCCCCCCCCCCCCCCCC(=O)O)C(=O)O)C(=O)NCC(=O)N[C@@H](Cc1c[nH]c2ccccc12)C(=O)N1CCC[C@H]1C(=O)N(C)[C@H](CC(=O)O)C(=O)N(C)[C@@H](Cc1ccccc1)C(N)=O` [Example 15, 2-[2-[2-[[2-[2-[2-[[(4S)-4-Carboxy-4-(17-carboxyheptadecanoylamino)butanoyl]amino]ethoxy]ethoxy]acetyl]amino]ethoxy]ethoxy]acetyl-Asp-sTyr-Leu-Gly-Trp-Pro-DMeAsp-MePhe-amide] ({C18 diacid-γGlu-AEEA-AEEA}-D[sY]LGWP[dNMeD][NMeF]-NH2): in assay [1], the EC50 was 150 nM. This molecule also displayed an IC50 in assay [2] of 1000 nM. For `CCCC[C@H](NC(=O)[C@H](Cc1c[nH]c2ccccc12)NC(=O)CNC(=O)[C@H](CCCCN)NC(=O)[C@H](Cc1ccc(OS(=O)(=O)O)cc1)NC(=O)[C@H](CC(=O)O)NC(=O)COCCOCCNC(=O)COCCOCCNC(=O)CC[C@H](NC(=O)CCCCCCCCCCCCCCCCC(=O)O)C(=O)O)C(=O)N(C)[C@H](CC(=O)O)C(=O)N(C)[C@@H](Cc1ccccc1)C(N)=O` [Example 16, 2-[2-[2-[[2-[2-[2-[[(4S)-4-Carboxy-4-(17-carboxyheptadecanoylamino)butanoyl]amino]ethoxy]ethoxy]acetyl]amino]ethoxy]ethoxy]acetyl-Asp-sTyr-Lys-Gly-Trp-Nle-DMeAsp-MePhe-amide] ({C18 diacid-γGlu-AEEA-AEEA}-D[sY]KGW[Nle][dNMeD][NMeF]-NH2), the 50% inhibitory concentration (IC50) in assay [2] was above 10000 nM. Take `CCCC[C@H](NC(=O)[C@H](Cc1ccc(CS(=O)(=O)O)cc1)NC(=O)C[C@H](NC(=O)COCCOCCNC(=O)COCCOCCNC(=O)CC[C@H](NC(=O)CCCCCCCCCCCCCCCCC(=O)O)C(=O)O)C(=O)O)C(=O)NCC(=O)N[C@@H](Cc1c[nH]c2ccccc12)C(=O)N[C@@H](CCCC)C(=O)N(C)[C@H](CC(=O)O)C(=O)N(C)[C@@H](Cc1ccccc1)C(N)=O` [Example 26, 2-[2-[2-[[2-[2-[2-[[(4S)-4-Carboxy-4-(17-carboxyheptadecanoylamino)butanoyl]amino]ethoxy]ethoxy]acetyl]amino]ethoxy]ethoxy]acetyl-bAsp-Phe(4-sulfomethyl)-Nle-Gly-Trp-Nle-DMeAsp-MePhe-amide] ({C18 diacid-γGlu-AEEA-AEEA-βAsp}-[Phe(4-CH2SO3H)][Nle]GW[Nle][dNMeD][NMeF]-NH2): in assay [1] (setting [3]), the EC50 was above 1000 nM. In addition, the concentration for half-maximal inhibition (IC50) in assay [2] (setting [4]) was above 10000 nM. In the same order, the values of `CCCC[C@H](NC(=O)[C@H](Cc1c[nH]c2ccccc12)NC(=O)CNC(=O)[C@H](CC(C)C)NC(=O)[C@H](Cc1ccc(OS(=O)(=O)O)cc1)NC(=O)[C@H](CC(=O)O)NC(=O)COCCOCCNC(=O)COCCOCCNC(=O)COCCOCCNC(=O)COCCOCCNC(=O)CC[C@H](NC(=O)CCCCCCCCCCCCCCCCC(=O)O)C(=O)O)C(=O)N(C)[C@H](CC(=O)O)C(=O)N(C)[C@@H](Cc1ccccc1)C(N)=O` [Example 31, 2-[2-[2-[[2-[2-[2-[[2-[2-[2-[[2-[2-[2-[[(4S)-4-Carboxy-4-(17-carboxyheptadecanoylamino)butanoyl]amino]ethoxy]ethoxy]acetyl]amino]ethoxy]ethoxy]acetyl]amino]ethoxy]ethoxy]acetyl]amino]ethoxy]ethoxy]acetyl-Asp-sTyr-Leu-Gly-Trp-Nle-DMeAsp-MePhe-amide] are 110 nM and 480 nM. Take `CCCC[C@H](NC(=O)[C@H](Cc1c[nH]c2ccccc12)NC(=O)CNC(=O)[C@H](CC(C)C)NC(=O)[C@H](Cc1ccc(OS(=O)(=O)O)cc1)NC(=O)[C@H](CCC(=O)O)NC(=O)COCCOCCNC(=O)COCCOCCNC(=O)CC[C@H](NC(=O)CCCCCCCCCCCCCCCCCCC(=O)O)C(=O)O)C(=O)N(C)[C@H](CC(=O)O)C(=O)N(C)[C@@H](Cc1ccccc1)C(N)=O` [Example 37, 2-[2-[2-[[2-[2-[2-[[(4S)-4-Carboxy-4-(19-carboxynonadecanoylamino)butanoyl]amino]ethoxy]ethoxy]acetyl]amino]ethoxy]ethoxy]acetyl-Glu-sTyr-Leu-Gly-Trp-Nle-DMeAsp-MePhe-amide] ({C20 diacid-γGlu-AEEA-AEEA}-E[sY]LGW[Nle][dNMeD][NMeF]-NH2): the IC50 in assay [2] (setting [4]) stood at 430 nM. On the same count and under the same terms, in the case of `CCCC[C@H](NC(=O)[C@H](Cc1c[nH]c2ccccc12)NC(=O)CNC(=O)[C@@H](NC(=O)[C@H](Cc1ccc(OS(=O)(=O)O)cc1)NC(=O)[C@H](CC(=O)O)NC(=O)COCCOCCNC(=O)COCCOCCNC(=O)CC[C@H](NC(=O)CCCCCCCCCCCCCCCCC(=O)O)C(=O)O)[C@@H](C)CC)C(=O)N(C)[C@H](CC(=O)O)C(=O)N(C)[C@@H](Cc1ccccc1)C(N)=O` [Example 47, 2-[2-[2-[[2-[2-[2-[[(4S)-4-Carboxy-4-(17-carboxyheptadecanoylamino)butanoyl]amino]ethoxy]ethoxy]acetyl]amino]ethoxy]ethoxy]acetyl-Asp-sTyr-Ile-Gly-Trp-Nle-DMeAsp-MePhe-amide] ({C18 diacid-γGlu-AEEA-AEEA}-D[sY]IGW[Nle][dNMeD][NMeF]-NH2) it was 340 nM.
